# According to patent US20230349922A1, “H2 Blockers Targeting Liver Macrophages for the Prevention and Treatment of Liver Disease and Cancer” (Université de Strasbourg, priority 2020, published 2023):
# Columns and labels:
# HRH2/cAMP/PKA axis = assay: PLS assessment upon perturbation of the HRH2/cAMP/PKA axis in Huh7.5.1dif cells; assay type: cell-based, human; settings: 48 hours, histamine 10 μM, 8-CPT cAMP 100 μM, H89 10 μM
# Experimental: Histamine, 8-CPT, cAMP and H89 Treatment. Huh7.5.1^dif cells were cultured in DMEM containing 1% FBS and 1% DMSO and incubated with histamine (10 μM) or histamine+nizatidine (10 μM) for 48 hours. Fresh medium containing histamine was replenished every 12 hours. For 8-CPT cAMP and H89, Huh7.5.1^dif cells cultured in DMEM 1% DMSO and 1% FBS were incubated with 8-CPT cAMP (100 μM), H89 (1 μM) or DMSO as a control for 48 hours. Fresh medium containing 8-CPT cAMP was replenished every 12 hours.
# Transcriptomic Analysis and PLS Calculation. Gene expression profiling and the 32 gene PLS 32 profiling were performed using 250-500 ng total RNA by using either nCounter Digital Analyzer system (NanoString) or the HumanHT-12 beadarray (Illumina) for the time-course experiments. PLS gene expression was normalized according to 6 housekeeping gene expression using GenePattern genomic analysis toolkits (Hoshida, PLOS ONE, 2010, 5: e15543; Peck et al., Genome Biol., 2006, 7: R61; Reich et al., Nature Genet., 2006, 38: 500-501). Induction or suppression of PLS risk signature was determined as previously reported by using Gene Set Enrichment Analysis (GSEA), implemented in GenePattern genomic analysis toolkits (Hoshida, PLOS ONE, 2010, 5: e15543; Peck et al., Genome Biol., 2006, 7: R61; Reich et al., Nature Genet., 2006, 38: 500-501). PLS was always determined by using CTRL cells as references. Results are presented as simplified heatmaps showing the classification of PLS global status as poor or good prognosis and the significance of induction/suppression of PLS genes (log 10 of false discovery rate (FDR) values). For each experiment, heatmaps show: in the upper part: the classification of PLS global status as poor (orange) or good (green) prognosis, and in the bottom part: the significance of induction (red) or suppression (blue) of PLS poor- or good-prognosis genes. Global status corresponds to the difference between low risk- and high risk-gene expression. The statistic tests, normalized enrichment score (NES) and FDR values are provided for each PLS experiment (poor- and good-prognosis genes variation and global status) in the Source Data file.
# HCC = settings: one animal model study (Furuta et al., 2008), circumstantial evidence; cited from earlier work
# natural killer cell = settings: patients with transarterial chemoembolization (Nishiguchi et al., 2003); cited from earlier work
# [1] = in vivo; cited from earlier work
# [2] = in vivo; cited from earlier work; remark: listed apart in the source
# [3] = system: prognostic liver signature (PLS); assay: cPLS model: reversal of the prognostic liver signature in HCV-infected Huh7.5.1dif cells; assay type: cell-based, human; settings: Huh7.5.1dif cells infected with HCV Jc1 for 7 days, treated 3 additional days; GSEA
# [4] = rodents; cited from earlier work
# [5] = system: M1-polarized THP1-derived macrophages; assay: RNA-Seq / GSEA of M1-polarized THP1-derived macrophages treated with Oxmetidine; assay type: cell-based, human
# Experimental: M1 Macrophage Polarization and HRH2 Blocker Treatment. THP1 cells were cultured in RPMI 1640 Medium with GlutaMAX™-I supplement and HEPES and supplemented with 10% FBS and gentamycin (0.05 mg/mL). M1 macrophage polarization from THP-1 was performed as previously described (Yeung et al., J. Hepatol., 2015, 62: 607-616). To generate MO THP-1 macrophages, THP1 cells were treated with PMA 320 nM for 24 hours. To generate M1-polarized THP-1 macrophages, THP-1 cells were treated with […] then with 100 ng/ml LPS and 20 ng/ml IFNγ for 18 hours. Cells then were treated with HRH2 blockers 20 μM or DMSO vehicle for 72 hours.
# RNA-Seq of M1 macrophages. RNA-Seq was performed on total RNA from MO macrophages, M1-polarized macrophages, and M1-polarized macrophages treated with Oxmetidine, Nizatidine or DMSO (triplicates). RNA-Seq was performed by the Biomedical Sequencing Facility (BSF) CEMM Research Center for Molecular Medicine of the Austrian Academy of Sciences, Vienna (Austria). Briefly, RNA-Seq libraries were generated from 300 ng of total RNA using TruSeq Stranded mRNA Sample Preparation Kit (Illumina, Part Number RS-122-2101). Following purification with poly-T oligo attached magnetic beads, the mRNA was fragmented using divalent cations at 94° C. for 2 minutes. The cleaved RNA fragments were copied into first strand cDNA using reverse transcriptase and random primers. Strand specificity was achieved by replacing dTTP with dUTP during second strand cDNA synthesis using DNA Polymerase I and RNase H. Following addition of a single ‘A’ base and subsequent ligation of the adapter on double stranded cDNA fragments, the products were purified and enriched with PCR (30 seconds at 98° C.; [10 seconds at 98° C., 30 seconds at 60° C., 30 seconds at 72° C.]×12 cycles; 5 minutes at 72° C.) to create the cDNA library. Surplus PCR primers were further removed by purification using AMPure XP beads (Beckman Coulter) and the final cDNA libraries were checked for quality and quantified using 2100 Bioanalyzer (Agilent). Libraries were sequenced on the Illumina HiSeq 4000 as Single-Read 50 base reads following Illumina's instructions. Image analysis and base calling were performed using RTA v2.7.3 and bcl2fastq v2.17.1.14.
# [6] = Farup, Scand. J. Gastroenterol., 1988; cited from earlier work
# [7] = system: patient-derived HCC tumor spheroids; assay: Cell viability (ATP, CellTiter-Glo) of patient-derived HCC tumorspheroids; assay type: cell-based, human; settings: sorafenib 10 μM, 4 days; some of the patient tumors
# Experimental: Patient-Derived HCC Tumor Spheroids. Tumorspheroids were generated from liver tissues from HCC patients undergoing surgical resection and dissociated using the Human Tumor Dissociation Kit. Total cell populations including epithelical (i.e., cancer cells/hepatocytes) and NPCs were used to generate multicellular tumorspheroids in Corning® 96-well Black/Clear Bottom Low Flange Ultra-Low Attachment Microplates (Corning). After 48 hours, HCC-derived spheroids were treated with nizatidine 50 μM, sorafenib 10 μM or DMSO vehicle control for 4 days. Fresh medium containing DMSO or drugs was added every day. Cell viability was assessed using CellTiter-Glo® (Luminescent Cell Viability Assay), according to manufacturer's instruction.
# [8] = Oxmetidine vs DMSO, 72 hours, GSEA
# [9] = Oxmetidine vs DMSO, 72 hours, GSEA, in contrast to Nizatidine
# [10] = single gene level, top 10 of Oxmetidine modulated genes
compound,measurement,setting,value
Nc1ncnc2c1nc(Sc1ccc(Cl)cc1)n2[C@@H]1O[C@@H]2COP(=O)(O)O[C@H]2[C@H]1O [8-CPT-cAMP],PLS poor-prognosis status upon perturbation of the HRH2/cAMP/PKA axis,HRH2/cAMP/PKA axis,induction of the poor-prognosis status of the PLS
CN/C(=N/CCSCc1nc[nH]c1C)NC#N [Cimetidine],anti-HCC effect,HCC,anti-HCC effect
same,natural killer cell activity in peripheral blood,natural killer cell,improves natural killer cell activity in peripheral blood
"NC(N)=Nc1nc(CSCCN/C=N/S(=O)(=O)c2ccc(Br)cc2)cs1 [Ebrotidine, 4-bromo-N-[[[2-[[[2-[(diaminomethylene)amino]-4-thiazolyl]methyl]thio]ethyl]amino]methylene] benzenesulfonamide]",efficacy for the treatment of gastric or duodenal ulcers or erosive reflux oesophagitis,[1],as effective as Ranitidine
same,"activity against ethanol-, aspirin- or stress-induced gastric mucosal damage",[2],gastroprotective activity
"NC(N)=Nc1nc(CSCCC(N)=NS(N)(=O)=O)cs1 [Famotidine, 3-[[2-(diaminomethylideneamino)-1,3-thiazol-4-yl]methylsulfanyl]-N′-sulfamoyl-propanimidamide]",reversal of the poor prognosis status of the prognostic liver signature (PLS),[3],partial reversal of the PLS
O=S(=O)(NCCNC/C=C/c1ccc(Br)cc1)c1cccc2cnccc12 [H89],PLS poor-prognosis status upon perturbation of the HRH2/cAMP/PKA axis,HRH2/cAMP/PKA axis,reversed the induction of the PLS poor-prognosis status
Cn1nc(CO)nc1NCCCOc1cccc(CN2CCCCC2)c1 [Lavoltidine],gastric carcinoid tumors,[4],produced gastric carcinoid tumors in rodents
"CC(C)/N=C/Nc1ccc(-c2c[nH]cn2)cc1 [Mifentidine, N-(4-(1H-imidazol-4-yl)phenyl)-N′-(1-methylethyl)methanimidamide]",gastric carcinoid tumors,[4],produced gastric carcinoid tumors in rodents
"Cc1[nH]cnc1CSCCNc1ncc(Cc2ccc3c(c2)OCO3)c(=O)[nH]1 [Oxmetidine, 5-(1,3-benzodioxol-5-ylmethyl)-2-[2-[(5-methyl-1H-imidazol-4-yl)methylsulfanyl]ethylamino]-1H-pyrimidin-6-one]",antigen presentation related-pathways,[5]; [8],improves antigen presentation related-pathways
same,"pathway mediating inflammation (TNFα, IL6)",[5]; [8],strongly suppresses pathway mediating inflammation
same,IFN response,[5]; [9],strong reduction in IFN response
same,cell metabolism,[5]; [9],improvement of cell metabolism
same,"expression of key genes regulating lipid metabolism (ABCG1, ABCA1, SREBF1)",[5]; [10],increase in expression of key genes regulating lipid metabolism
same,"pro-inflammatory gene expression (CCL7, CCL2, IL6)",[5]; [10],decrease in pro-inflammatory gene expression
"Cc1ncc(-c2csc(N=C(N)N)n2)[nH]1 [Zaltidine, 2-[4-(2-methyl-1H-imidazol-5-yl)-1,3-thiazol-2-yl]guanidine]",hepatotoxicity,[6],hepatotoxic
NCCc1c[nH]cn1 [histamine],PLS poor-prognosis status upon perturbation of the HRH2/cAMP/PKA axis,HRH2/cAMP/PKA axis,Induction of the PLS poor-prognosis status
CNC(=O)c1cc(Oc2ccc(NC(=O)Nc3ccc(Cl)c(C(F)(F)F)c3)cc2)ccn1 [sorafenib],tumor spheroid response,[7],did not respond
